In brackets after ≈: the same amount, converted by molar mass.
How the values were obtained:
[1] = tested on: Leishmania donovani strain MHOM/ET1671L82; assay: Leishmaniasis in vitro screening model (axenic amastigotes, Alamar Blue); assay type: cell-based
Summary of the method: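 Axenic L. donovani amastigotes (10^5 per well) from hamster spleen, grown at 37° C in SM medium pH 5.4 with 10% FBS, 5% CO2, exposed to serial 3-fold compound dilutions (30 to 0.041 μg/mL) for 72 h. Alamar Blue added for 2 h, fluorescence read (ex 536/em 588 nm); IC50 from sigmoidal curve versus control cultures.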

P. Berghei = assay: In vivo efficacy mouse malaria model; conditions: 2×/day
Description: Test compounds will be compared to chloroquine, artemisinin, mefloquine as follows: NMRI mice, SPF, females, […]
From a donor mouse with approximately 30% parasitemia, heparinized blood is taken and diluted in physiological saline to 10^8 parasitized erythrocytes per mL. An aliquot of 0.2 mL (=2×10^7 parasitized erythrocytes) of this suspension is injected intravenously (i.v.) into experimental groups of 4 mice.
Two-to-four hours post-infection, the experimental groups are treated with a single dose by the subcutaneous or the oral route. The compounds are prepared at an appropriate concentration, as a solution or suspension containing 3% ethanol and 7% Tween 80 or in SSV (standard suspending vehicle): […]
Twenty-four hours after the last treatment ([…]) blood smears from all animals are prepared and stained with Giemsa. Parasitemia is determined microscopically by counting 400 red blood cells (“rbcs”), for low parasitemias (<1%) up to 4,000 rbc's have to be counted. The difference between the mean value of the control group (taken as 100%) and those of the experimental groups is calculated and expressed as % Reduction where: [formula]
Additional smears will be taken on day 5 and day 6; and parasitemia will be determined and the activity calculated. Survival time (in days) is recorded, and the mean survival time is calculated. Adverse effects are recorded. Four mice/compound and a minimum of 12 mice/study (vehicle and positive controls run concurrently) are used.

[2] = tested on: T. b. rhodesiense STIB 900; assay: African sleeping sickness in vitro screening model (Alamar Blue); assay type: cell-based, Trypanosoma brucei rhodesiense
Summary of the method: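 Bloodstream-form trypomastigotes, 8×10^3/well, were grown in supplemented MEM with 15% horse serum, without hypoxanthine, at 37 °C in 5% CO2. They were exposed for 72 h to seven 3-fold dilutions from 90 to 0.123 μg/mL. Resazurin (Alamar Blue) was added for 2 h, fluorescence read at ex 536/em 588 nm, and IC50 taken as the mean of four values.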

SMILES	L. donovani IC50 [1] [µg/mL]	% of Activity (P. Berghei; 4 × 30 mg/kg, s.c.) [%]	Mean Survival (P. Berghei; 4 × 30 mg/kg, s.c.) [days]	Parasitized RBC over 100 % of Control (P. Berghei; 4 × 30 mg/kg, s.c.) [%]	Parasitized RBC over 100 Mean (P. Berghei; 4 × 30 mg/kg, s.c.)	% of Activity (P. Berghei; 4 × 100 mg/kg, p.o.) [%]	Mean Survival (P. Berghei; 4 × 100 mg/kg, p.o.) [days]	Parasitized RBC over 100 % of Control (P. Berghei; 4 × 100 mg/kg, p.o.) [%]	Parasitized RBC over 100 Mean (P. Berghei; 4 × 100 mg/kg, p.o.)	T. b. rhodesiense IC50 [2] [µg/mL]	IC50 ([1]; Leishmania donovani, read-out: L. donovani IC50) [µg/mL]	% of Activity (P. Berghei; 4 × 100 mg/kg, s.c.) [%]	Mean Survival (P. Berghei; 4 × 100 mg/kg, s.c.) [days]	Parasitized RBC over 100 % of Control (P. Berghei; 4 × 100 mg/kg, s.c.) [%]	Parasitized RBC over 100 Mean (P. Berghei; 4 × 100 mg/kg, s.c.)	% of Activity (P. Berghei; 4 × 300 mg/kg, p.o.) [%]	Mean Survival (P. Berghei; 4 × 300 mg/kg, p.o.) [days]	Parasitized RBC over 100 % of Control (P. Berghei; 4 × 300 mg/kg, p.o.) [%]	Parasitized RBC over 100 Mean (P. Berghei; 4 × 300 mg/kg, p.o.)	IC50 ([2]; Trypanosoma brucei) [µg/mL]
CC1(C)COC(c2cccc(B(Oc3cccc4cccnc34)c3cccc(C4=NC(C)(C)CO4)c3)c2)=N1 [Compound 13, Bis[3-(4,5-dihydro-4,4-dimethyloxazol-2-yl)phenyl]borinic acid 8-hydroxyquinoline ester]	0.82	52.31	15.3	47.09	11.9	81.29	12.7	18.78	4.7	0.5	–	–	–	–	–	–	–	–	–	–
COc1ccc(B(Oc2cccc3cccnc23)c2cccc(Cl)c2)cc1OC [Compound 27, (3-Chlorophenyl)(3,4-dimethoxyphenyl)borinic acid quinolin-8-yl ester]	–	–	–	–	–	–	–	–	–	–	0.47 (≈ 1.16 µM)	68.09	18.7	31.91	7.9	56.94	15.7	43.08	10.7	0.52 (≈ 1.29 µM)

From patent publication US20060014723A1, “Anti-parasitic uses of borinic acid complexes” (priority 2004, published 2006)
